Measurements from publication PMC10994248 (The Oncologist, 2024).

Assay: Phase I safety and tolerability (TEAEs, DLTs, MTD, DRDE) in patients with advanced solid tumors
Format: in vivo, human
Settings: for DLT: Hypertension / DLT: Palmar-plantar erythrodysesthesia syndrome / DLT: Skin and subcutaneous tissue disorders / DLT: Vascular disorders / Subjects who had a dose-limiting toxicity: dose-determining set
Procedure: This 2-part, open-label, phase I study was conducted at the MD Anderson Cancer Center in Texas, USA and the Cancer Hospital Chinese Academy of Medical Sciences in Beijing, China. […] This was followed by a dose-expansion phase, the primary objective of which was to confirm the safety and tolerability of tinengotinib at the DRDE. Secondary objectives were to characterize the pharmacokinetics and preliminary efficacy of tinengotinib.
Dose escalation was guided by an adaptive Bayesian logistic regression model using the Escalation with Overdose Control principle.[6],[7] Study data (including DLTs, grade 2 adverse events during cycle 1, and pharmacokinetic data) were reviewed by the sponsor and trial investigators at each dose level and used to guide dose-escalation decisions. MTD was based on the Bayesian model, but with consideration given to available safety and tolerability data. DRDE was based on an evaluation of all available data (safety, clinical activity, and pharmacokinetics).
After determination of the DRDE, the dose-expansion phase was opened to further characterize safety and pharmacokinetics, and to assess preliminary efficacy.
Routine safety assessments of adverse events, laboratory tests (hematology, coagulation, biochemistry, and urinalysis), vital signs, and 12-lead electrocardiograms were performed. Adverse events were graded according to the National Cancer Institute Common Terminology Criteria for Adverse Events (CTCAE), version 5.0.

Substance: tinengotinib
- DLT: Hypertension (1 mg (n=1)): 0 No. (%)
- DLT: Palmar-plantar erythrodysesthesia syndrome (1 mg (n=1)): 0 No. (%)
- DLT: Skin and subcutaneous tissue disorders (1 mg (n=1)): 0 No. (%)
- DLT: Vascular disorders (1 mg (n=1)): 0 No. (%)
- Subjects who had a dose-limiting toxicity (1 mg (n=1)): 0 No. (%)
- DLT: Hypertension (3 mg (n=1)): 0 No. (%)
- DLT: Palmar-plantar erythrodysesthesia syndrome (3 mg (n=1)): 0 No. (%)
- DLT: Skin and subcutaneous tissue disorders (3 mg (n=1)): 0 No. (%)
- DLT: Vascular disorders (3 mg (n=1)): 0 No. (%)
- Subjects who had a dose-limiting toxicity (3 mg (n=1)): 0 No. (%)
- DLT: Hypertension (5 mg (n=4)): 0 No. (%)
- DLT: Palmar-plantar erythrodysesthesia syndrome (5 mg (n=4)): 0 No. (%)
- DLT: Skin and subcutaneous tissue disorders (5 mg (n=4)): 0 No. (%)
- DLT: Vascular disorders (5 mg (n=4)): 0 No. (%)
- Subjects who had a dose-limiting toxicity (5 mg (n=4)): 0 No. (%)
- DLT: Hypertension (8 mg (n=9)): 0 No. (%)
- DLT: Palmar-plantar erythrodysesthesia syndrome (8 mg (n=9)): 1 (11.1) No. (%)
- DLT: Skin and subcutaneous tissue disorders (8 mg (n=9)): 1 (11.1) No. (%)
- DLT: Vascular disorders (8 mg (n=9)): 0 No. (%)
- Subjects who had a dose-limiting toxicity (8 mg (n=9)): 1 (11.1) No. (%)
- DLT: Hypertension (10 mg (n=3)): 0 No. (%)
- DLT: Palmar-plantar erythrodysesthesia syndrome (10 mg (n=3)): 0 No. (%)
- DLT: Skin and subcutaneous tissue disorders (10 mg (n=3)): 0 No. (%)
- DLT: Vascular disorders (10 mg (n=3)): 0 No. (%)
- Subjects who had a dose-limiting toxicity (10 mg (n=3)): 0 No. (%)
- DLT: Hypertension (12 mg (n=9)): 0 No. (%)
- DLT: Palmar-plantar erythrodysesthesia syndrome (12 mg (n=9)): 0 No. (%)
- DLT: Skin and subcutaneous tissue disorders (12 mg (n=9)): 0 No. (%)
- DLT: Vascular disorders (12 mg (n=9)): 0 No. (%)
- Subjects who had a dose-limiting toxicity (12 mg (n=9)): 0 No. (%)
- DLTs during the dose-expansion phase (12 mg dose): no other DLTs
- DLT: Hypertension (15 mg (n=5)): 2 (40.0) No. (%)
- DLT: Palmar-plantar erythrodysesthesia syndrome (15 mg (n=5)): 0 No. (%)
- DLT: Skin and subcutaneous tissue disorders (15 mg (n=5)): 0 No. (%)
- DLT: Vascular disorders (15 mg (n=5)): 2 (40.0) No. (%)
- Subjects who had a dose-limiting toxicity (15 mg (n=5)): 2 (40.0) No. (%)
- Dose modifications (dose adjustment or temporary interruption) because of drug-related TEAEs (48 patients): 52.1%
- Dose modifications because of drug-related hypertension (48 patients): 22.9%
- Drug-related grade 3 diarrhea (48 patients): 2.1%
- Drug-related grade 3 hypertension (48 patients): 27.1%
- Drug-related grade 3 nausea (48 patients): 2.1%
- Drug-related grade 3 palmar-plantar erythrodysesthesia syndrome (48 patients): 2.1%
- Drug-related grade 3 stomatitis (48 patients): 4.2%
- Drug-related grade 4 or 5 TEAEs (48 patients): No drug-related grade 4 or 5 TEAEs were reported
- Patients with drug-related grade 3 TEAEs (48 patients): 43.8%
- Patients with drug-related serious adverse events (48 patients): 14.6%
- Patients with study drug-related TEAEs (48 patients, all doses): 85.4%
- Drug-related TEAE diarrhea (48 patients, any grade): 33.3%
- Drug-related TEAE hypertension (48 patients, any grade): 50.0%
- Drug-related TEAE nausea (48 patients, any grade): 22.9%
- Drug-related TEAE palmar-plantar erythrodysesthesia syndrome (48 patients, any grade): 29.2%
- Drug-related TEAE stomatitis (48 patients, any grade): 29.2%
- Drug-related TEAE vomiting (48 patients, any grade): 20.8%
- Maximum tolerated dose (MTD) (Bayesian model, doses 1-15 mg once daily): not reached
- DLT: Hypertension (Total (n=32)): 2 (6.3) No. (%)
- DLT: Palmar-plantar erythrodysesthesia syndrome (Total (n=32)): 1 (3.1) No. (%)
- DLT: Skin and subcutaneous tissue disorders (Total (n=32)): 1 (3.1) No. (%)
- DLT: Vascular disorders (Total (n=32)): 2 (6.3) No. (%)
- Subjects who had a dose-limiting toxicity (Total (n=32)): 3 (9.4) No. (%)
- Risk of grade ≥3 hypertension predicted by exposure-response model (all doses): < 25%
- Patients with AE (combined 12 mg (n=20)): 20 (100) n (%)
- Patients with TEAE (combined 12 mg (n=20)): 20 (100) n (%)
- Patients with TEAE leading to death (combined 12 mg (n=20)): 0 n (%)
- Patients with TEAE leading to dose adjustment/temporary interruption (combined 12 mg (n=20)): 15 (75.0) n (%)
- Patients with TEAE leading to study drug permanent discontinuation (combined 12 mg (n=20)): 3 (15.0) n (%)
- Patients with grade ≥3 TEAE (combined 12 mg (n=20)): 14 (70.0) n (%)
- Patients with study drug-related TEAE (combined 12 mg (n=20)): 19 (95.0) n (%)
- Patients with study drug-related TEAE leading to dose adjustment/temporary interruption (combined 12 mg (n=20)): 13 (65.0) n (%)
- Patients with study drug-related TEAE leading to study drug permanent discontinuation (combined 12 mg (n=20)): 1 (5.0) n (%)
- Patients with study drug-related grade ≥3 TEAE (combined 12 mg (n=20)): 11 (55.0) n (%)
- Patients with study drug-related treatment-emergent SAE (combined 12 mg (n=20)): 3 (15.0) n (%)
- Patients with treatment-emergent SAE (combined 12 mg (n=20)): 9 (45.0) n (%)
- Patients with AE (dose escalation 1 mg (n=1)): 1 (100) n (%)
- Patients with TEAE (dose escalation 1 mg (n=1)): 1 (100) n (%)
- Patients with TEAE leading to death (dose escalation 1 mg (n=1)): 0 n (%)
- Patients with TEAE leading to dose adjustment/temporary interruption (dose escalation 1 mg (n=1)): 0 n (%)
- Patients with TEAE leading to study drug permanent discontinuation (dose escalation 1 mg (n=1)): 0 n (%)
- Patients with grade ≥3 TEAE (dose escalation 1 mg (n=1)): 0 n (%)
- Patients with study drug-related TEAE (dose escalation 1 mg (n=1)): 0 n (%)
- Patients with study drug-related TEAE leading to dose adjustment/temporary interruption (dose escalation 1 mg (n=1)): 0 n (%)
- Patients with study drug-related TEAE leading to study drug permanent discontinuation (dose escalation 1 mg (n=1)): 0 n (%)
- Patients with study drug-related grade ≥3 TEAE (dose escalation 1 mg (n=1)): 0 n (%)
- Patients with study drug-related treatment-emergent SAE (dose escalation 1 mg (n=1)): 0 n (%)
- Patients with treatment-emergent SAE (dose escalation 1 mg (n=1)): 0 n (%)
- Patients with AE (dose escalation 3 mg (n=1)): 1 (100) n (%)
- Patients with TEAE (dose escalation 3 mg (n=1)): 1 (100) n (%)
- Patients with TEAE leading to death (dose escalation 3 mg (n=1)): 0 n (%)
- Patients with TEAE leading to dose adjustment/temporary interruption (dose escalation 3 mg (n=1)): 0 n (%)
- Patients with TEAE leading to study drug permanent discontinuation (dose escalation 3 mg (n=1)): 0 n (%)
- Patients with grade ≥3 TEAE (dose escalation 3 mg (n=1)): 0 n (%)
- Patients with study drug-related TEAE (dose escalation 3 mg (n=1)): 0 n (%)
- Patients with study drug-related TEAE leading to dose adjustment/temporary interruption (dose escalation 3 mg (n=1)): 0 n (%)
- Patients with study drug-related TEAE leading to study drug permanent discontinuation (dose escalation 3 mg (n=1)): 0 n (%)
- Patients with study drug-related grade ≥3 TEAE (dose escalation 3 mg (n=1)): 0 n (%)
- Patients with study drug-related treatment-emergent SAE (dose escalation 3 mg (n=1)): 0 n (%)
- Patients with treatment-emergent SAE (dose escalation 3 mg (n=1)): 0 n (%)
- Patients with AE (dose escalation 5 mg (n=4)): 4 (100) n (%)
- Patients with TEAE (dose escalation 5 mg (n=4)): 4 (100) n (%)
- Patients with TEAE leading to death (dose escalation 5 mg (n=4)): 0 n (%)
- Patients with TEAE leading to dose adjustment/temporary interruption (dose escalation 5 mg (n=4)): 2 (50.0) n (%)
- Patients with TEAE leading to study drug permanent discontinuation (dose escalation 5 mg (n=4)): 0 n (%)
- Patients with grade ≥3 TEAE (dose escalation 5 mg (n=4)): 1 (25.0) n (%)
- Patients with study drug-related TEAE (dose escalation 5 mg (n=4)): 3 (75.0) n (%)
- Patients with study drug-related TEAE leading to dose adjustment/temporary interruption (dose escalation 5 mg (n=4)): 1 (25.0) n (%)
- Patients with study drug-related TEAE leading to study drug permanent discontinuation (dose escalation 5 mg (n=4)): 0 n (%)
- Patients with study drug-related grade ≥3 TEAE (dose escalation 5 mg (n=4)): 1 (25.0) n (%)
- Patients with study drug-related treatment-emergent SAE (dose escalation 5 mg (n=4)): 0 n (%)
- Patients with treatment-emergent SAE (dose escalation 5 mg (n=4)): 0 n (%)
- Patients with AE (dose escalation 8 mg (n=10)): 9 (90.0) n (%)
- Patients with TEAE (dose escalation 8 mg (n=10)): 9 (90.0) n (%)
- Patients with TEAE leading to death (dose escalation 8 mg (n=10)): 0 n (%)
- Patients with TEAE leading to dose adjustment/temporary interruption (dose escalation 8 mg (n=10)): 5 (50.0) n (%)
- Patients with TEAE leading to study drug permanent discontinuation (dose escalation 8 mg (n=10)): 2 (20.0) n (%)
- Patients with grade ≥3 TEAE (dose escalation 8 mg (n=10)): 6 (60.0) n (%)
- Patients with study drug-related TEAE (dose escalation 8 mg (n=10)): 8 (80.0) n (%)
- Patients with study drug-related TEAE leading to dose adjustment/temporary interruption (dose escalation 8 mg (n=10)): 5 (50.0) n (%)
- Patients with study drug-related TEAE leading to study drug permanent discontinuation (dose escalation 8 mg (n=10)): 1 (10.0) n (%)
- Patients with study drug-related grade ≥3 TEAE (dose escalation 8 mg (n=10)): 4 (40.0) n (%)
- Patients with study drug-related treatment-emergent SAE (dose escalation 8 mg (n=10)): 3 (30.0) n (%)
- Patients with treatment-emergent SAE (dose escalation 8 mg (n=10)): 5 (50.0) n (%)
- Patients with AE (dose escalation 10 mg (n=6)): 6 (100) n (%)
- Patients with TEAE (dose escalation 10 mg (n=6)): 6 (100) n (%)
- Patients with TEAE leading to death (dose escalation 10 mg (n=6)): 0 n (%)
- Patients with TEAE leading to dose adjustment/temporary interruption (dose escalation 10 mg (n=6)): 5 (83.3) n (%)
- Patients with TEAE leading to study drug permanent discontinuation (dose escalation 10 mg (n=6)): 4 (66.7) n (%)
- Patients with grade ≥3 TEAE (dose escalation 10 mg (n=6)): 5 (83.3) n (%)
- Patients with study drug-related TEAE (dose escalation 10 mg (n=6)): 6 (100) n (%)
- Patients with study drug-related TEAE leading to dose adjustment/temporary interruption (dose escalation 10 mg (n=6)): 3 (50.0) n (%)
- Patients with study drug-related TEAE leading to study drug permanent discontinuation (dose escalation 10 mg (n=6)): 4 (66.7) n (%)
- Patients with study drug-related grade ≥3 TEAE (dose escalation 10 mg (n=6)): 2 (33.3) n (%)
- Patients with study drug-related treatment-emergent SAE (dose escalation 10 mg (n=6)): 1 (16.7) n (%)
- Patients with treatment-emergent SAE (dose escalation 10 mg (n=6)): 4 (66.7) n (%)
- Patients with AE (dose escalation 12 mg (n=12)): 12 (100) n (%)
- Patients with TEAE (dose escalation 12 mg (n=12)): 12 (100) n (%)
- Patients with TEAE leading to death (dose escalation 12 mg (n=12)): 0 n (%)
- Patients with TEAE leading to dose adjustment/temporary interruption (dose escalation 12 mg (n=12)): 8 (66.7) n (%)
- Patients with TEAE leading to study drug permanent discontinuation (dose escalation 12 mg (n=12)): 3 (25.0) n (%)
- Patients with grade ≥3 TEAE (dose escalation 12 mg (n=12)): 9 (75.0) n (%)
- Patients with study drug-related TEAE (dose escalation 12 mg (n=12)): 11 (91.7) n (%)
- Patients with study drug-related TEAE leading to dose adjustment/temporary interruption (dose escalation 12 mg (n=12)): 6 (50.0) n (%)
